Source: patent publication US12459997B2, “Compounds and methods targeting interleukin-19” (Eli Lilly and Company, priority 2018, dated 2025)

Test system: Ps0 patients
Assay: Ps0 study in anti-TNFα treatment groups: serum IL-19 and PASI
Format: in vivo, human
Settings: for IL-19 serum levels (geometric mean) / % of patients with serum IL-19 concentration ≤ 21 pg/mL / % patients with serum IL-19 concentration ≤ 21 pg/mL achieving at least PASI 75 / % patients with serum IL-19 concentration ≤ 21 pg/mL not achieving at least PASI 75: 50 mg biweekly subcutaneous
Source text: According to an exemplified embodiment, a sandwich ELISA assay for the sensitive detection of IL-19 is provided herein. According to an exemplified embodiment, a first IL-19 antibody (selected from Table 1, 2 or 3) is utilized as an IL-19 capture antibody and a second IL-19 antibody (selected from Table 1, 2 or 3) is utilized as an IL-19 reporter antibody. […] According to some embodiments, one milligram of the first IL-19 antibody (the capture antibody) is biotinylated using Pierce biotinylation kit (Cat #) and one milligram of the second IL-19 antibody (the reporter antibody) is labeled with ruthenium using MesoScale Discovery (MSD) kit for electrochemiluminescent (ECL) detection. According to such embodiment, labeled antibodies are evaluated using MALDI-TOF to ensure suitable labeling, and then diluted in 50% glycerol and stored at −20° C. prior to use.
Streptavidin-coated 96-well MSD plates are washed three times with TBST (Tris buffered saline containing 10 mmol/L Tris pH 7.40, 150 mmol/L NaCl with 1 mL Tween 20/L) and then blocked with TBS-T plus 1% BSA for 1 hour at room temperature. Plates are again washed and wells are then incubated with biotinylated IL-19 capture antibody (1 mg/L) for 1 hour. Thereafter, plates are again washed prior to patient sample testing.
During patient sample testing, a standard curve is generated using 50 μL of recombinant human IL-19 control standard (serially diluted IL-19 recombinant protein ranging from 100-0.0001 ng/L, and including a zero blank, in assay buffer of 50 mmol/L HEPES, pH 7.40, 150 mmol/L NaCl, 10 mL/L Triton X-100, 5 mmol/L EDTA, and 5 mmol/L EGTA). […] Patient samples (which, according to the present invention, may include blood, serum or plasma) are diluted 1:4 in assay buffer and added to respective wells. The plate is incubated overnight at 4° C. Following incubation, wells are aspirated and washed 3 times with TBST. Thereafter, 50 μL of ruthenium-labeled IL-19 detection antibody (0.5 mg/L) is added to the wells for a 1-hour incubation at room temperature. Following incubation, wells are aspirated and washed 3 times with TBST. Thereafter, 150 μl of 2×MSD read buffer is added. Ruthenium electrochemiluminescence in the wells is detected using a MSD Sector 6000 plate reader. Data is analyzed and IL-19 MSD immunoassay calibration curve fitting is performed using MesoScale Discovery software. SAS® software version 9.4 (PROC MIXED) is used for assessing treatment effects on IL-19 levels using a mixed effects model with an unstructured covariance matrix and log10 transformed IL-19 concentrations (SAS. Version 9.4 for UNIX; SAS Institute Inc.: Cary, N.C., 2016). Statistical analysis is generated with the ggplot and pROC packages using R version 3.3.3 statistical computing environment (www.R-project.org, Vienna, Austria, 2017).
A study of IL-19 levels, in serum of 35 Ps0 patients that were complete responders when treated with the FDA approved TNFα antagonist, entanercept, is performed. Treatment groups of 50 mg of etanercept (n=35) administered biweekly or placebo are compared. Administration of both treatment groups is subcutaneous. […] IL-19 levels are assessed for prognostic value with PASI improvement at weeks 4 and 12. Serum IL-19 concentration levels are presented in Table 11; prognostic values at week 4 showing correlations of IL-19 serum levels and PASI in psoriasis patients (21 ng/L indicates the upper limit of the normal range of IL-19 in healthy subjects) is presented in Table 12; prognostic values at week 12 showing correlations of IL-19 serum levels and PASI in psoriasis patients (21 ng/L indicates the upper limit of the normal range of IL-19 in healthy subjects) is presented in Table 13.

Substance: etanercept
- IL-19 serum levels (geometric mean) (Week 0 (baseline)): 98.2 pg/mL
- IL-19 serum levels (geometric mean) (Week 1): 42.3 pg/mL
- % of patients with serum IL-19 concentration ≤ 21 pg/mL (week 4): 37.9% (44/116)
- % patients with serum IL-19 concentration ≤ 21 pg/mL achieving at least PASI 75 (week 4): 22.7% (10/44)
- % patients with serum IL-19 concentration ≤ 21 pg/mL not achieving at least PASI 75 (week 4): 77.3% (34/44)
- IL-19 serum levels (geometric mean) (week 4): 24.3 pg/mL
- % of patients with serum IL-19 concentration ≤ 21 pg/mL (week 12): 42.9% (69/161)
- % patients with serum IL-19 concentration ≤ 21 pg/mL achieving at least PASI 75 (week 12): 49.3% (34/69)
- % patients with serum IL-19 concentration ≤ 21 pg/mL not achieving at least PASI 75 (week 12): 50.7% (35/69)
- IL-19 serum levels (geometric mean) (week 12): 14.2 pg/mL
- median reduction in serum IL-19 (after 1 week): greater than 40 pg/mL
- median reduction in serum IL-19 (at week 4): > 70 pg/mL
